This test deals with PA-specific Ab responses. Details: species or system mice. The note with it: mouse, in vivo, ip.

Consider `Cc1c(-c2ccnn2C)cc(C(=O)NCc2ccc(S(C)(=O)=O)cn2)c(=O)n1-c1cccc(C(F)(F)F)c1` [Alvelestat, alvelestat], for which the “High affinity PA-specific serum IgG1 and IgA Ab responses” value is recorded as “promotes high affinity Abs”.

(Values after US20180360953A1 (priority 2015, published 2018).)
